According to US6172052A, “17β-acyl-17α-propynyl-11β-arylsteroids and their derivatives having agonist or antagonist hormonal properties” (Research Triangle Institute, priority 1998, dated 2001):

Assays:
[1] = from C. E. Cook et al, Human Reproduction, 9, Supplement 1, 32-39, June 1994; cited from earlier work
progestin receptor = assay: Receptor binding: relative binding activity (RBA) for progestin receptor, competition with 3H-R5020 in T-47D cells; conditions: T-47D human breast carcinoma cells; ratio of concentrations causing 50% displacement of 3H-R5020; percentage of reference standard R-5020
Description: Receptor Binding. The affinity of the compounds for hormone receptors was determined by standard procedures similar to those that have been described, inter alia, by Wagner et al., Proc. Natl. Acad. Sci., 93, 8739-8744 (1996) for COS-1 cells. The human breast carcinoma (T-47D) cell line was used to assess RBA for progestin receptor. The cell line used was obtained from ATCC (American Type Culture Collection) and stored frozen at -135° C. until a week before the assays were conducted. The cells were thawed and cultured to achieve the desired cell number (5 to 7 days on average). […] After incubation overnight, medium was removed, the cells were washed and solubilized and radioactivity was measured by liquid scintillation spectromctry. Nonspecific binding was determined by incubation with an excess of unlabeled R5020 and subtracted from total binding to calculate specific binding. […]
The percentage of specifically bound ^3 H-R5020 for each concentration tested was calculated and binding curves were generated by plotting the percentage of specifically bound ^3 H-R-5020 versus the concentration of the competitor. The relative binding activity (RBA) of the test compounds, relative to the reference standard (R5020) as well as the internal standard, was determined from the ratio of concentrations causing 50% displacement for each unknown and standard, and expressed as a percentage value. […]

[2] = tested on: estrogen-primed, progesterone-stimulated immature female rabbits; assay: In vivo antiprogestational activity, uterine endometrial effects scored according to McPhail; parameters: species or system rabbit; conditions: oral
Description: In vivo Test. Antiprogestational activity was determined in vivo by dose-response studies in estrogen-primed, progesterone-stimulated immature female rabbits and results were scored according to McPhail (McPhail, J. Physiol., 83: 146 (1934)). These are standard procedures well-known to those skilled in the art. For determining antiprogestational (antagonist) activity, the test compound was given orally together with subcutaneous administration of progesterone. It was tested orally at 0.5, 1 and 2 mg total dose in estrogenprimed immature female rabbits that were simultaneously given subcutaneous progesterone. The rabbits, weighing about 1.5 kg, were primed with estrogen one a day for 6 days and then treated once a day for 5 days with 0.8 mg total dose of progesterone--i.e.160 μg/day--while at the same time giving the test compound orally once a day in a vehicle of 10% ethanol/sesame oil (0.5 mL volume). Necropsy was performed one day after the last dose. Uterine endometrial effects were scored according to McPhail and potency was evaluated by statistical comparison with the standard compound
17α-acetoxy-11β-[4-(N,N-dimethylamino)phenyl]-19-norpregna-4,9-diene-3,20-dione.

SMILES | antiprogestational potency relative to mifepristone [1] | RBA (relative binding activity) relative to R-5020 (progestin receptor) [%] | antiprogestational activity (in words) ([2]; estrogen-primed, progesterone-stimulated immature female rabbits) | antiprogestational potency relative to the standard compound ([2]; once a day for 5 days with subcutaneous progesterone, McPhail score, standard = 17α-acetoxy-11β-[4-(N,N-dimethylamino)phenyl]-19-norpregna-4,9-diene-3,20-dione) [fold] | antiprogestational potency relative to mifepristone ([2]; worked out from 5-fold versus standard and standard 3-fold versus mifepristone) [fold]
CC(=O)O[C@]1(C(C)=O)CC[C@H]2[C@@H]3CCC4=CC(=O)CCC4=C3[C@@H](c3ccc(N(C)C)cc3)C[C@@]21C [standard compound, 17α-acetoxy-11β-[4-(N,N-dimethylamino)phenyl]-19-norpregna-4,9-diene-3,20-dione] | approximately 3 fold | – | – | – | –
CC#C[C@]1(C(C)=O)CC[C@H]2[C@@H]3CCC4=CC(=O)CCC4=C3[C@@H](c3ccc(C(C)=O)cc3)C[C@@]21C [A-16, 11β-(4-Acetylphenyl)-17α-(1-propynyl)-19-norpregna-4,9-diene-3,20-dione] | – | 439 | had antiprogestational activity | – | –
CC#C[C@]1(C(C)=O)CC[C@H]2[C@@H]3CCC4=CC(=O)CCC4=C3[C@@H](c3ccc(N(C)C)cc3)C[C@@]21C [A-1, 11β-[4-(N,N-Dimethylamino)phenyl]-17α-(1-propynyl)-19-norpregna-4,9-diene-3,20-dione] | – | 313 | – | 5 | ≤ 15
